Data on one molecule can be found in patent US20260048155A1, “BIOCOMPATIBLE PARAHYDROGEN HYPERPOLARIZED SOLUTIONS BY PRECIPITATION AND RE-DISSOLUTION” (North Carolina State University, priority 2022, published 2026).

Values joined by “and” are separate entries in the source; they are usually repeats but may differ in a detail not shown here. Equal entries are not always repeated.

Data set [1] can be described thus: SABRE-SHEATH hyperpolarization, 13C polarization quantified at 1.4 T benchtop NMR. The class given is physicochemical. The procedure:
A previously reported setup and experimental protocol has been used to prepare high P13C of up to ≈14.5% of 30 mM [1-^13C]pyruvate in methanol, which was confirmed after transferring the HP samples from the polarizer into a 1.4 T benchtop ^1H/^13C NMR system. The mean of N=19 experiments from 9 samples measured on 5 different days under the same conditions was 8±2%. […] These hyperpolarization values correspond to ^13C enhancement ε13C of ≈75,000-fold. The optimal experimental parameters are obtained via sweeping the static magnetic field (optimum transfer field BT≈0.4 μT) and temperature (TT≈10° C.) using a p-H2 flow rate of 75 standard cubic centimeters per minute (scc/m), and ≈7 bar total pressure, FIGS. 4A-4B, respectively.
(§1) CD3OD is widely used as the SABRE-reaction-hosting solvent because it provides convenient means of attaining high-field NMR spectrometer lock. However, non-deuterated polarization media may be preferred for biomedical applications. For this reason, systematic relaxation dynamics studies were performed comparing CD3OD, CH3OH, and C2H5OH for SABRE-SHEATH [1-^13C]pyruvate hyperpolarization, investigating relevant parameters for these solvents and for fixed concentrations of pyruvate, SABRE catalyst, and DMSO (30 mM, 6 mM, and 40 mM, respectively). However, the ethanol sample was prepared with only 6 mM pyruvate and 10% H2O due to limited solubility. The optimal Br was similar in all investigated samples (≈0.4 μT, FIG. 4A). […] (FIG. 4B). Thus, all the experiments described below were performed using these optimized Br and Tr parameters.
Preparation of samples: Parahydrogen was enriched to >99.10% and filled into aluminum cylinders at 350 psi using a setup described previously. The SABRE samples were prepared in CD3OD (CAS: DLM-24-25), CH3OH (CAS: 67-56-1), or ethanol (CAS: 64-17-5) using the stated concentration of sodium pyruvate (in most cases 30 mM, natural abundance—CAS: 113-24-6; [1-^13C]-labeled—CAS: 490709-250 MG), an iridium catalyst at 6 mM concentration synthesized as described previously, doped with 40 mM dimethyl sulfoxide (DMSO) to block one active center of the catalyst and to avoid pyruvate from binding to the catalyst at two sites. Oxygen was removed from the samples by guiding argon gas at approximately ambient pressure through the samples for ˜1 min. Also, oxygen was removed from all solvents used for the preparation of the samples (methanol or ethanol) or for the precipitation of pyruvate (ethyl acetate (EtAc), room temperature, CAS: 141-78-6) prior to mixing them to the catalyst substrate solutions. For the SABRE experiments, the samples were filled into medium wall, or in case of precipitation studies, into regular wall NMR tubes (SKU: WG-1000-8, outer diameter 5 mm, inner diameter 4 mm and length 8 inches). Note that the total volume of the catalyst-substrate sample was 600 μL (in the baseline and solvent study) or 100 μL in experiments were precipitation and phase separation were performed. In case of dissolution SABRE, 300 μL of room-temperature H2O (HPLC grade-submicron filtered) or D2O (CAS: 7789-20-0) were added.
SABRE hyperpolarization setup: The experimental setup has been used previously but will be described in much greater detail elsewhere. Briefly, it consisted of a 3-layer mu-metal of 3″ I.D. and 9″ DEPTH to shield external magnetic fields (Magnetic Shield Corporation, ZG-203), combined with a custom-made solenoid to generate a static magnetic field, B0, of ˜300 nT (28 AWG wire, 650 windings, 7″ homogeneous length). Note that this coil provided a constant magnetic field here (5 VDC power supply connected to the solenoid via a resistor board to regulate the current and effectively set the magnetic field). […]

Data set [2] is described as follows: Precipitation and syringe/cotton filtering of HP pyruvate at 10 mT. The class given is physicochemical. To be noted: 4.5 mL EtAc, filter at 10 mT, 1 mL H2O, 90-100 s procedure, repeated three times. The protocol:
As described above, filtering of non-hyperpolarized pyruvate from the precipitated solutions was tested using in-line syringe filters (FIGS. 9A-9C), and the obtained solutions of supernatant and dissolved microcrystals were analyzed with high resolution NMR. Cotton filters were also used as a performance metric for the syringe filters. Each sample was SABRE-SHEATH-polarized as described previously for three times to quantify the mean base-line hyperpolarization before precipitation (for this batch of samples, P13C=10±1% in CH3OH). Because a short lifetime of ^13C magnetization was expected at ultralow field, the precipitation procedure was performed at an elevated field of 10 mT (see setup described in section 5). At this field, proton and ^13C Zeeman levels are separated by >350 kHz, i.e., an order of magnitude greater than the dipolar spin-spin couplings present in the solid state. To this end, after the hyperpolarization procedure was completed, the sample was rapidly removed from the 0.30 μT field, depressurized, and filled into a 10-mL plastic syringe held at a 10 mT field mounted to a Luer-locked filter. After depressurization (˜10-15 s after hyperpolarization) 4.5 mL EtAc was added, the solution was stirred manually, and the filtration was started, taking a total of about 1 min following hyperpolarization. […]

Data set [3] can be described thus: SABRE polarization build-up and T1 relaxation dynamics in SABRE solvents. The class given is physicochemical. The note with it: for 13C T1 decay / polarization build-up Tb: 0.4 μT. The procedure:
as §1
The polarization build-up (Tb) and decay (T1) at 0.4 μT were similar: Tb=13.7±0.6 s versus 19.3±0.6 s; and T1=26.0±0.4 s versus 29.1±0.8 s, respectively (FIGS. 4C, 4E). P13C values were also similar; in one representative example of polarization build-up, P13C was 7.8±0.1% vs. 8.5±0.1% for CH3OH and CD3OD media, respectively, FIG. 4D. […] For ethanol, 1.4-fold lower P13C values were obtained in this mixture compared to CH3OH and CD3OD, which is rationalized by a more efficient relaxation at the SABRE-SHEATH field, FIG. 4E.
Data fitting and error propagation for relaxation and polarization build-up data presented in FIGS. 4A-4I: Data in FIGS. 4C, 4F, 4H was fitted using mono-exponential functions (solid lines) and extracted values with error of polarization build-up or relaxation are presented in bar plots (FIGS. 4D, 4E, 4G, 4I).

For data set [4] the following is noted: 30 mM pyruvate, prior SABRE-SHEATH work (background); cited from earlier work.

In the case of `CC(=O)[13C](=O)O` [[1-^13C]pyruvate], the “fold lower P13C compared to CH3OH and CD3OD” value in data set [1] (6 mM in 90% C2H5OH + 10% H2O) is 1.4 fold. The P13C turned out to be 8.5±0.1% in data set [1] (30 mM in CD3OD, representative polarization build-up at 0.4 μT); 7.8±0.1% in data set [1] (30 mM in CH3OH, representative polarization build-up at 0.4 μT); 3.7±0.06% in data set [1] (60 mM in CH3OH, 6 mM catalyst, p-H2 80 scc/m). Also, the “P13C, mean” value in data set [1] (30 mM in methanol, N=19 experiments from 9 samples on 5 days, inter-day mean with s.d.) stood at 8±2%. Also, the “P13C, maximum” value in data set [1] (30 mM in methanol, SABRE-SHEATH, detected at 1.4 T) was “≈ 14.5% and 14.5%”. Also, the “P13C, mean base-line before precipitation” value in data set [1] (in CH3OH, batch used for filtering tests) is on record as 10±1%. In addition, the “13C enhancement ε13C” value in data set [1] (in methanol, vs thermal polarization at 1.4 T) is listed as “≈ 75,000 fold”. The “HP 13C signal after precipitation and filtering” value in data set [2] is “no HP ^13C signal was observed”. For the same molecule, the entries for the “13C T1 decay” value in data set [3] (30 mM in CD3OD) and in data set [3] (30 mM in CH3OH) were 26.0 ± 0.4 s and 29.1 ± 0.8 s, respectively. The “polarization build-up Tb” value in data set [3] (30 mM in CD3OD) was 13.7 ± 0.6 s; in data set [3] (30 mM in CH3OH) it was 19.3 ± 0.6 s. Also, the “13C T1 relaxation time” value worked out at 86 ± 2 s in data set [3] (30 mM in CD3OD, 1.4 T) and 59.3 ± 0.8 s in data set [3] (30 mM in CH3OH, 1.4 T). Further, the T1 relaxation time was found to be 59.3 ± 0.5 s in data set [3] (60 mM in CH3OH, 1.4 T) and 34.6 ± 1.1 s in data set [3] (60 mM in CH3OH, 300 nT). Besides, in data set [3] (60 mM in CH3OH, 300 nT), the “polarization build-up time constant Tb” value stood at 22.0 ± 0.7 s. Moreover, in data set [3] (dissolved in CH3OH:catalyst mixture, Earth's field), the “1-13C T1” value worked out at 46.5 ± 0.9 s. Also, the “P13C in the free state” value in data set [4] is 13%.
